According to ChEMBL document CHEMBL5357023, “Synthesis and Evaluation of Benzylamine Inhibitors of Neuropathogenic Naegleria fowleri "Brain-Eating" Amoeba” (ACS Med Chem Lett, 2024):
≈ marks a conversion by molar mass, not a printed value.

Columns and labels:
Naegleria fowleri [1] = assay: Anti-ameobic activity against Naegleria fowleri NF69 ATCC 30215 assessed as growth inhibition incubated for 48 hrs relative to control; type: functional, organism-based; conditions: for growth inhibition (GI): time 48 hrs
SH-SY5Y [2] = assay: Cytotoxicity against human SH-SY5Y cells assessed as reduction in cell viability at 20 uM incubated for 72 hrs by celltiter glow assay; type: functional
Naegleria fowleri [3] = assay: Anti-ameobic activity against Naegleria fowleri NF69 ATCC 30215 incubated for 48 hrs; type: functional, organism-based; conditions: NF69 ATCC 30215, 48 h
SH-SY5Y [4] = assay: Cytotoxicity against human SH-SY5Y cells assessed as reduction in cell viability at 1 uM incubated for 72 hrs by celltiter glow assay; type: functional
[5] = Kinetic solubility of compound in phosphate buffer at pH 7.4 incubated for 24 hrs by HPLC analysis; type: physicochemical; conditions: read-out: Kinetic_solubility
SH-SY5Y [6] = assay: Cytotoxicity against human SH-SY5Y cells assessed as reduction in cell viability incubated for 72 hrs by celltiter glow assay; type: functional
[7] = Microsomal stability in CD-1 mouse liver microsome assessed as half life preincubated for 60 mins followed by NADPH addition and measured after 60 mins by HPLC analysis; type: ADME; conditions: liver microsomes, time 120 min
[8] = Lipophilicity, log D of the compound in octanol/phosphate buffer at pH 7.4 incubated for 2 mins by LC-MS analysis; type: physicochemical
[9] = Stability in CD-1 mouse plasma assessed as parent compound remaining incubated for 20 mins by LC-MS analysis; type: ADME, cell-free; conditions: read-out: Stability
[10] = Plasma protein binding in CD-1 mouse measured for 4 hrs by LC-MS/MS analysis; type: ADME, cell-free; conditions: read-out: PPB (converted)
[11] = Permeability of compound incubated for 18 hrs by PAMPA assay; type: ADME; conditions: read-out: permeability

Structure (SMILES) | Cell viability remaining (SH-SY5Y [2]) | EC50 (Naegleria fowleri [3]) | Activity (SH-SY5Y [4]) | growth inhibition (GI) (Naegleria fowleri [1]) | other results
CC(C)(C)c1ccc(C(=O)Nc2cc(Cl)cnc2C(=O)[O-])cc1.[Na+] | 61% | – | – | – | EC50 (Naegleria fowleri [1]; Naegleria fowleri, NF69 ATCC 30215, 48 h): > 10 µM
CC(C)(C)c1ccc(CNc2cc(Cl)ncc2C(=O)O)cc1 | – | > 10 µM | – | – | –
CC(C)(C)c1ccc(S(=O)(=O)Nc2cc(Cl)cnc2C(=O)O)cc1 | 100% | > 10 µM | 100% | 16.5% | –
CC(C)(C)c1ccc(CNc2cc(Cl)cnc2C(N)=O)cc1 | 77% | > 10 µM | 100% | 27.7% | –
CC(C)(C)c1ccc(CCc2cc(Cl)cnc2C(=O)O)cc1 | 85% | > 10 µM | 100% | 0% | –
CC(Nc1cc(Cl)cnc1C(=O)O)c1ccc(C(C)(C)C)cc1 (stereo unspecified) | 100% | > 10 µM | 98% | 38.2% | –
COc1ccc(CNc2cc(Cl)cnc2C(=O)O)cc1 | 95% | > 10 µM | 98% | 6.6% | –
CC(C)(C)c1ccc(CNc2cc(F)cnc2C(=O)O)cc1 | 73% | 5 µM | 91% | 99.5% | –
COc1ccc(CCNc2cc(Cl)cnc2C(=O)O)cc1 | 71% | > 10 µM | 95% | 12.9% | –
CC(C)(C)c1ccc(CNc2cncc(Cl)c2)cc1 | 88% | > 10 µM | 100% | 17.6% | –
CC(C)(C)c1ccc(CC(=O)Nc2cc(Cl)cnc2C(=O)O)cc1 | 19% | > 10 µM | 76% | 9.9% | –
CC(C)(C)c1ccc(CNc2cc(Cl)c(-c3ccccc3)nc2C(=O)O)cc1 | 82% | > 10 µM | 100% | 20.4% | –
CC(C)(C)c1ccc(CNc2cc(-c3ccccc3)cnc2C(=O)O)cc1 | 81% | 5 µM | 100% | 99.3% | –
CC(C)(C)c1ccc(Nc2cc(Cl)cnc2C(=O)O)cc1 | 57% | > 10 µM | 98% | 4.5% | –
CC(C)(C)c1ccc(CNc2cc(Cl)cnc2C(=O)O)s1 | 90% | > 10 µM | 95% | 0% | –
CC(C)(C)c1ccc(CCNc2cc(Cl)cnc2C(=O)O)cc1 | 100% | 3.3 µM | 95% | 99.8% | –
O=C(O)c1ncc(Cl)cc1NCCc1ccc(C(F)(F)F)cc1 | 57% | > 10 µM | 59% | 44.8% | –
CC(C)(C)c1ccc(CNc2cc(N3CCOCC3)cnc2C(=O)O)cc1 | 75% | 11.5 µM | 85% | 52.8% | –
CC(C)(C)c1ccc(CNc2scnc2C(=O)O)cc1 | – | > 10 µM | – | – | –

Structure (SMILES) | Cell viability remaining (SH-SY5Y [2]) | EC50 (Naegleria fowleri [3]) | Activity (SH-SY5Y [4]) | growth inhibition (GI) (Naegleria fowleri [1]) | other results
Cc1cnc(C(=O)O)c(NCc2ccc(C(C)(C)C)cc2)c1 | 98% | 1.4 µM | 96% | 100.4% | solubility kinetic at 24 h [5]: 208 µM (≈ 62.1 µg/mL); CC50 (SH-SY5Y [6]): > 20 µM; half-life [7]: 49 min; logD at 2 min [8]: 2.4
CC(C)(C)c1ccc(CNc2cc(Cl)cnc2C#N)cc1 | 57% | > 10 µM | 96% | 22.2% | –
CC(C)(C)c1ncc(CNc2cc(Cl)cnc2C(=O)O)s1 | 67% | > 10 µM | 95% | 0% | –
COc1cnc(C(=O)O)c(NCCc2ccc(C(C)(C)C)cc2)c1 | 57% | 1.1 µM | 87% | 100.4% | –
O=C(O)c1ncc(Cl)cc1NCc1ccc(C(F)(F)F)cc1 | 66% | > 10 µM | 78% | 29.5% | –
CC(C)(C)c1ccc(CNc2cc(Cl)c(Cl)nc2C(=O)O)cc1 | 100% | > 10 µM | 100% | 12.3% | –
CC(C)(C)c1ccc(CNc2cc(Cl)c(Br)nc2C(=O)O)cc1 | 100% | > 10 µM | 100% | 17.6% | –
CC(C)(C)c1ccc(CNc2cccnc2C(=O)O)cc1 | 89% | 3 µM | 100% | 99.2% | –
CC(C)(C)c1ccc(CNc2cncnc2C(=O)O)cc1 | – | > 10 µM | – | – | –
COc1cnc(C(=O)O)c(NCc2ccc(C(C)(C)C)cc2)c1 | 100% | 0.92 µM | 98% | 100.3% | solubility kinetic at 24 h [5]: 199 µM (≈ 62.6 µg/mL); remaining at 20 min [9]: 92%; fraction unbound at 4 h [10]: 0.003; CC50 (SH-SY5Y [6]): > 20 µM; half-life [7]: 72 min; Papp at 18 h [11]: 9.69 ×10⁻⁶ cm/s; logD at 2 min [8]: 2.3
CC(C)(C)c1ccc(CNc2cc(Cl)cnc2C(=O)O)cc1 | 53% | 6 µM | 85% | 98.8% | solubility kinetic at 24 h [5]: 84 µM (≈ 26.8 µg/mL); remaining at 20 min [9]: 93%; fraction unbound at 4 h [10]: 0.009; CC50 (SH-SY5Y [6]): > 20 µM; half-life [7]: 38 min; Papp at 18 h [11]: 8.5 ×10⁻⁶ cm/s; logD at 2 min [8]: 2.3
O=C(O)c1ncc(Cl)cc1NCc1ccccc1 | 95% | > 10 µM | 95% | 0% | –
O=C(O)c1ncc(Cl)cc1NCc1ccc(F)cc1 | 100% | > 10 µM | 93% | 22.8% | –
CC(C)(C)c1ccc(CNc2cc(Br)cnc2C(=O)O)cc1 | 85% | 7.2 µM | 99% | 84.4% | –
Cc1ccc(CNc2cc(Cl)cnc2C(=O)O)cc1 | 94% | > 10 µM | 100% | 0% | –
NC(=O)N1c2ccccc2C=Cc2ccccc21 [CARBAMAZEPINE] | – | – | – | – | Papp at 18 h [11]: 6.63 ×10⁻⁶ cm/s
CCCCCCCCCCCCCCCCOP(=O)([O-])OCC[N+](C)(C)C [MILTEFOSINE] | – | 35.7 µM | – | – | –
CC(C)(C)NCC(O)COc1cccc2c1CC(O)C(O)C2 (stereo unspecified) [NADOLOL] | – | – | – | – | Papp at 18 h [11]: < 0.01 ×10⁻⁶ cm/s
